Data set [1] in a line: Chemical stability. The data set is classed as physicochemical.
A short description of data set [2]: Metabolic stability in mouse liver microsomes. The data set is classed as in vitro ADME. The settings on record: for metabolic stability (in words): incubated with mouse liver microsomes. In general terms: Liver microsomes are a subcellular fraction often used to study metabolism.
A short description of data set [3]: Metabolic stability in human liver microsomes. The data set is classed as in vitro ADME.
Data set [4] in a line: Metabolic stability in rat liver microsomes. It counts as in vitro ADME.
Data set [5] is described as follows: Tolerability observed in rat PK studies. The data set is classed as in vivo. The following applies: rats; for hemolysis: dosed iv, most likely arising from the vehicle; for signs of toxicity: orally or ip at doses up to ∼20 mg/kg.
Data set [6] in a line: in vivo. The following applies: male, Sprague Dawley, rat, plasma.
Data set [7] in a line: Oral exposure in mice. The data set is classed as in vivo, mouse. The following applies: single oral dose 50 mg/kg, suspension in PEG400, after ∼5 h.
A short description of data set [8]: Blood and plasma stability. The settings on record: rat blood and plasma, over 4 h at 37 °C. It counts as in vitro ADME.
For data set [9] the following is noted: rat dosed intravenously.

The values that follow come from article PMC3624797 (Journal of Medicinal Chemistry, 2013).

Turning to `CCOC(=O)C1=C(C)NC(Cc2cc(C)n(-c3ccccc3C(F)(F)F)c2C)C1=O` (stereo not shown) [Compound 11b], the “chemical stability (in words)” value in [1] is “less stable chemically”.

Regarding `CCOC(=O)C1=C(C)N/C(=C/c2ccn(-c3ccccc3C(F)(F)F)c2)C1=O` [Compound 9a], the “metabolic stability (in words)” value in [2] is listed as “even lower metabolic stability”.

For `CCOC(=O)C1=C(C)N/C(=C/c2ccn(-c3ccc(C(F)(F)F)cc3)c2)C1=O` [Compound 9b], the “metabolic stability (in words)” value in data set [2] is listed as “even lower metabolic stability”.

For `CCOC(=O)C1=C(C)N/C(=C/c2cc(C)n(-c3ccc(C(F)(F)F)cc3)c2C)C1=O` [Compound 8b, Ethyl (5E)-5-[[2,5-Dimethyl-1-[4-(trifluoromethyl)phenyl]pyrrol-3-yl]methylene]-2-methyl-4-oxo-1H-pyrrole-3-carboxylate], in data set [2] (mouse liver microsomes (Table 6)), the metabolites detected result is “none”. In data set [3], the half-life (usually how long it takes for the measured level to halve) at 1 μM was 35 min and the metabolites detected entry is “none”. The metabolites detected entry in data set [4] is on record as “none”. Moreover, in [5], the hemolysis result was “slight degree of hemolysis” and the signs of toxicity result is reported as “No sign of toxicity”. The compound also displayed a half-life in data set [6] of at least 480 min.

As to `CCOC(=O)C1=C(C)N/C(=C/c2cc(C)n(-c3ccc(CN(C)C)cc3)c2C)C1=O` [Compound 8aa], the “metabolic stability (in words)” value in [2] was “slightly more stable”.

Regarding `CCOC(=O)C1=C(C)N/C(=C/c2cc(CC)n(-c3ccccc3C(F)(F)F)c2CC)C1=O` [Compound 9c, Ethyl (5E)-5-[[2,5-Diethyl-1-[2-(trifluoromethyl)phenyl]pyrrol-3-yl]methylene]-2-methyl-4-oxo-1H-pyrrole-3-carboxylate], the “metabolic stability (in words)” value in [2] is given as “even lower metabolic stability”.

Consider `CC1=CC(=O)/C(=C\c2cc(C)n(-c3ccccc3C(F)(F)F)c2C)N1` [Compound 10d], for which, in [2], the “metabolic stability (in words)” value was “slightly more stable”.

Consider `CCOC(=O)C1=C(C)N/C(=C/c2cc(C)n(-c3ccc(N4CCOCC4)cc3)c2C)C1=O` [Compound 8u], for which the “metabolic stability (in words)” value in data set [2] is on record as “slightly more stable”.

For the compound `CCOC(=O)C1=C(C)N/C(=C/c2cc(C)n(-c3ccccc3C(F)(F)F)c2C)C1=O` [Compound 8a, Ethyl (5E)-5-[[2,5-dimethyl-1-[2-(trifluoromethyl)phenyl]pyrrol-3-yl]methylene]-2-methyl-4-oxo-1H-pyrrole-3-carboxylate], the metabolites detected entry in data set [3] was “none”. The same compound had a plasma levels in [7] of under 0.01 µM. In data set [8], the “hydrolyzed to the acid 10c” value was about 25%. For the same compound, in [5], the hemolysis entry is “slight degree of hemolysis” and the signs of toxicity result was “No sign of toxicity”. Further, the “chemical stability (in words)” value in [1] is given as “fairly resistant to chemical hydrolysis”. In [9], the “glutathione conjugation adducts in urine” value was “no adducts resulting from conjugation with glutathione were detected”. The half-life in [6] is at least 480 min.
